From US8748426B2, “Inhibitors of diacylglycerol acyl transferase” (Piramal Enterprises Limited, priority 2009, dated 2014)

Molecular target: T1, hDGAT1 (Homo sapiens, UniProt O75907)
T1 sequence (O75907 1-488): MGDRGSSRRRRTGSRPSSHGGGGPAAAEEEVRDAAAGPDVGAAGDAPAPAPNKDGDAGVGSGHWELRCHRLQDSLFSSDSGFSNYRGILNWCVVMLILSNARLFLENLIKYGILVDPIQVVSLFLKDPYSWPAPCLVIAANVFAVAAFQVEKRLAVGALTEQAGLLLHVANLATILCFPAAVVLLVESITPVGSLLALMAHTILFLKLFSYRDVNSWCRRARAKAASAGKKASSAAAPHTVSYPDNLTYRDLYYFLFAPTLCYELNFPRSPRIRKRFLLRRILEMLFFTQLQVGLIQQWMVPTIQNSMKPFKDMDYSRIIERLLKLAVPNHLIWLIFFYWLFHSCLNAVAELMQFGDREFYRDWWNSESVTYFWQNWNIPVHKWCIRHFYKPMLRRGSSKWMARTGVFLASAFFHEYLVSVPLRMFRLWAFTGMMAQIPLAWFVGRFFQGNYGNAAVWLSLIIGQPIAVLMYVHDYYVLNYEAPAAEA
Test: In-vitro DGAT1 assay (14C oleoyl CoA, hDGAT1 microsomes from Sf9 cells)
Conditions: for inhibition at 1 µM: read-out: % Inhibition of hDGAT1
Procedure: Sf9 cells were seeded in spinner flasks on day 0 at a cell density of 1×10^6 and infected on day 1 with hDGAT1 baculovirus at a multiplicity of infection (MOI) of 5 and a cell density of 2×10^6. On day 3 (or 66-72 h), cells were harvested and centrifuged at 2500×g for 10 min. Pellet was resuspended in lysis buffer (100 mM sucrose, 50 mM KCl, 40 mM KH2PO4, 30 mM EDTA, pH 7.2) and passed through 21-gauge needle approximately 10 times. […] The supernatant was subjected to centrifugation at 35,000 rpm in a Beckman Ti-45 rotor at 4° C. for 1 h. The resultant pellet containing the microsomes wasere resuspended overnight in 1 mL of lysis buffer and total protein concentration was estimated using Bradford Reagent. Microsomes were aliquoted and stored at −80° C.
Frozen aliquots of hDGAT1 containing microsomes were thawed (5-10 mg/mL total protein) on ice and diluted to a working stock of 1 mg/mL with DGAT Assay Buffer (DAB).
The assay was performed in duplicates in a reaction volume of 100 μL. […] Procedure:
The reaction was started by the addition of 2.5 μL of 1 mg/mL of microsomes (iv) to the mixture and incubated at 37° C. for 10 min. […] The mixture was vortexed and the triglycerides formed were extracted into the organic heptane phase.

With `CC(C)[C@@H](C(=O)O)N1Cc2ccc(-c3ccc(NC(=O)c4ccc5c(c4)C(C)(C)CCC5(C)C)cc3)cc2C1=O` [Example 176, (S)-3-Methyl-2-(1-oxo-6-(4-(5,5,8,8-tetramethyl-5,6,7,8-tetrahydronaphthalene-2-carboxamido)phenyl)isoindolin-2-yl)butanoic acid] the inhibition at 1 µM was > 50%.
For `Cc1ccc(NC(=O)Nc2ccc(-c3ccc4c(c3)C(=O)N([C@H](C(=O)O)C(C)C)C4)cc2)cc1` [Example 24], the “% Inhibition of hDGAT1” value (at 1 μM) was “+ (10-50% Inhibition)”.
`Cc1cccc(NC(=O)Nc2ccc(-c3ccc4c(c3)C(=O)N([C@H](C(=O)O)C(C)C)C4)cc2)c1` [Example 22, (S)-3-Methyl-2-(1-oxo-6-(4-(3-m-tolylureido)phenyl)isoindolin-2-yl)butanoic acid] gave an inhibition at 1 µM of 10 to 50%.
For `CC(C)[C@H](C(=O)O)N1Cc2ccc(-c3ccc(NC(=O)Nc4cccc(C(F)(F)F)c4)cc3)cc2C1=O` [Example 331, (R)-3-Methyl-2-(1-oxo-6-(4-(3-(3-(trifluoromethyl)phenyl)ureido)phenyl)isoindolin-2-yl)butanoic acid], the inhibition at 1 µM was > 50%.
For `CC(C)[C@@H](C(=O)O)N1Cc2ccc(-c3ccc(NC(=S)Nc4cccc(Cl)c4)cc3)cc2C1=O` [Example 64, (S)-2-(6-(4-(3-(3-Chlorophenyl)thioureido)phenyl)-1-oxoisoindolin-2-yl)-3-methyl butanoic acid], the inhibition at 1 µM was 10 to 50%.
`CCCCCc1ccc(C(=O)Nc2ccc(-c3ccc4c(c3)C(=O)N([C@H](C(=O)O)C(C)C)C4)c(C(F)(F)F)c2)cc1` [Example 430, (S)-3-Methyl-2-(1-oxo-6-(4-(4-pentylbenzamido)-2-(trifluoromethyl)phenyl)isoindolin-2-yl)butanoic acid] showed an inhibition at 1 µM of 10 to 50%.
In the case of `Cc1ccc(F)c(C(=O)Nc2ccc(-c3ccc4c(c3)C(=O)N([C@H](C(=O)O)C(C)C)C4)cc2)c1F` [Example 166, (S)-2-(6-(4-(2,6-Difluoro-3-methylbenzamido)phenyl)-1-oxoisoindolin-2-yl)-3-methylbutanoic acid], the inhibition at 1 µM is reported as > 50%.
`CC(C)[C@@H](C(=O)O)N1Cc2ccc(-c3ccc(NC(=O)NC4CCCCC4)cc3)cc2C1=O` [Example 34, (S)-2-(6-(4-(3-Cyclohexylureido)phenyl)-1-oxoisoindolin-2-yl)-3-methylbutanoic acid] was tested, and the inhibition at 1 µM was > 50%.
With `O=C(Nc1ccc(-c2ccc3c(c2)C(=O)N(C2(C(=O)O)CC2)C3)cc1)c1ccc(Cl)cc1` [Example 588, 1-(6-(4-(4-Chlorobenzamido)phenyl)-1-oxoisoindolin-2-yl)cyclopropane carboxylic acid] the inhibition at 1 µM was > 50%.
Work on `CC(C)[C@@H](C(=O)O)N1Cc2cc(-c3ccc(NC(=S)Nc4ccccc4C(F)(F)F)cc3)ccc2C1=O` [Example 271, (S)-3-Methyl-2-(1-oxo-5-(4-(3-(2-(trifluoromethyl)phenyl)thioureido)phenyl)isoindolin-2-yl)butanoic acid] yielded an inhibition at 1 µM of 10 to 50%.
In the case of `CC(C)[C@@H](C(=O)O)N1Cc2cc(-c3ccc(NC(=S)Nc4cccc(Cl)c4)cc3)ccc2C1=O` [Example 267, (S)-2-(5-(4-(3-(3-Chlorophenyl)thioureido)phenyl)-1-oxoisoindolin-2-yl)-3-methylbutanoic acid], the inhibition at 1 µM is reported as 10 to 50%.
In the case of `CC(C)[C@@H](C(=O)O)N1Cc2cc(-c3ccc(NC(=O)c4ccc(F)cc4)cc3)ccc2C1=O` [Example 307, (S)-2-(5-(4-(4-Fluorobenzamido)phenyl)-1-oxoisoindolin-2-yl)-3-methylbutanoic acid], the inhibition at 1 µM is reported as 10 to 50%.
With `CCCCc1ccc(C(=O)Nc2ccc(-c3ccc4c(c3)C(=O)N([C@H](C(=O)O)C(C)C)C4)cc2)nc1` [Example 649, (S)-2-(6-(4-(5-Butylpicolinamido)phenyl)-1-oxoisoindolin-2-yl)-3-methylbutanoic acid] the inhibition at 1 µM was > 50%.
Compound `CC(C)[C@@H](C(=O)O)N1Cc2cc(-c3ccc(NC(=O)NC4CCCCC4)cc3)ccc2C1=O` [Example 235, (S)-2-(5-(4-(3-Cyclohexylureido)phenyl)-1-oxoisoindolin-2-yl)-3-methyl butanoic acid] has an inhibition at 1 µM of 10 to 50%.
